In PubChem BioAssay (NCI):
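Protocol summary: plate cells (96-well), add compound at 5 concentrations, incubate 48 h, interpolate endpoints linearly. GI50 = concentration required for 50% inhibition of growth. TGI: concentration producing complete growth inhibition.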

Columns and labels:
Assay in all cases: NCI tumour cell line growth inhibition, 48 h
SF-295 CNS = test system: SF-295 CNS
A549 NSCLC = test system: A549 NSCLC
UACC-62 melanoma = test system: UACC-62 melanoma
RXF 393 renal = test system: RXF 393 renal
HT29 colon = test system: HT29 colon
SW-620 colon = test system: SW-620 colon
NCI-H226 lung = test system: NCI-H226 lung
HCT-15 colon = test system: HCT-15 colon
HL-60(TB) leukemia = test system: HL-60(TB) leukemia
SNB-75 CNS = test system: SNB-75 CNS

O=c1c(O)cccc2cc(O)c(O)c(O)c12
GI50 (SF-295 CNS): 5.28 µM | TGI (SF-295 CNS): > 100 µM | GI50 (A549 NSCLC): > 100 µM | TGI (A549 NSCLC): > 100 µM | GI50 (UACC-62 melanoma): 6.4 µM | TGI (UACC-62 melanoma): > 100 µM | GI50 (RXF 393 renal): 13.3 µM | TGI (RXF 393 renal): > 100 µM | GI50 (HT29 colon): 33.2 µM | TGI (HT29 colon): > 100 µM | GI50 (SW-620 colon): 20.2 µM | TGI (SW-620 colon): > 100 µM | GI50 (NCI-H226 lung): > 100 µM | TGI (NCI-H226 lung): > 100 µM | GI50 (HCT-15 colon): 39.1 µM | TGI (HCT-15 colon): > 100 µM | GI50 (HL-60(TB) leukemia): 21.9 µM | TGI (HL-60(TB) leukemia): 77.9 µM

O=C(c1ccccc1)c1oc2ccc(Br)cc2c1-c1cnn(-c2ccccc2)c1
TGI (SF-295 CNS): > 100 µM | TGI (UACC-62 melanoma): > 100 µM | TGI (RXF 393 renal): > 100 µM | TGI (HT29 colon): > 100 µM | TGI (HCT-15 colon): > 100 µM | TGI (HL-60(TB) leukemia): > 100 µM | TGI (SNB-75 CNS): > 100 µM

CCN(CC)CCCC(C)Nc1nc(C)cc(Nc2ccc3nc(C)cc(N)c3c2)n1 (stereo unspecified)
GI50 (SF-295 CNS): 0.0287 µM | TGI (SF-295 CNS): 28.7 µM | GI50 (A549 NSCLC): > 100 µM | TGI (A549 NSCLC): > 100 µM | GI50 (UACC-62 melanoma): 39.2 µM | TGI (UACC-62 melanoma): > 100 µM | GI50 (RXF 393 renal): 55.1 µM | TGI (RXF 393 renal): > 100 µM | GI50 (HT29 colon): 24.4 µM | TGI (HT29 colon): 75.2 µM | GI50 (SW-620 colon): 35.8 µM | TGI (SW-620 colon): > 100 µM | GI50 (NCI-H226 lung): > 100 µM | TGI (NCI-H226 lung): > 100 µM | GI50 (HCT-15 colon): > 100 µM | TGI (HCT-15 colon): > 100 µM | GI50 (SNB-75 CNS): 19.8 µM | TGI (SNB-75 CNS): > 100 µM

Cc1cc2cn3c4ccc(O)cc4[nH]c(=O)c3c2cc1C
GI50 (SF-295 CNS): 0.0356 µM | TGI (SF-295 CNS): 0.221 µM | GI50 (A549 NSCLC): 0.0308 µM | TGI (A549 NSCLC): 1.04 µM | GI50 (UACC-62 melanoma): 0.0411 µM | TGI (UACC-62 melanoma): 1.78 µM | GI50 (RXF 393 renal): 0.0258 µM | TGI (RXF 393 renal): 1.43 µM | GI50 (SW-620 colon): 0.0105 µM | TGI (SW-620 colon): 1.53 µM | GI50 (NCI-H226 lung): 0.0399 µM | TGI (NCI-H226 lung): 0.859 µM | GI50 (HCT-15 colon): 0.032 µM | TGI (HCT-15 colon): 1.18 µM

O=C(O)CCC/C=C\C[C@H]1C=CC(=O)/C1=C/C[C@@H](O)CCc1cccc(C(F)(F)F)c1
GI50 (SF-295 CNS): 2.5 µM | TGI (SF-295 CNS): 6.09 µM | GI50 (A549 NSCLC): 3.2 µM | TGI (A549 NSCLC): 9.76 µM | GI50 (UACC-62 melanoma): 2.29 µM | TGI (UACC-62 melanoma): 6.94 µM | GI50 (RXF 393 renal): 2 µM | TGI (RXF 393 renal): 3.61 µM | GI50 (HT29 colon): 2.69 µM | TGI (HT29 colon): 6.41 µM | GI50 (SW-620 colon): 3.1 µM | TGI (SW-620 colon): 10.1 µM | GI50 (HCT-15 colon): 1.79 µM | TGI (HCT-15 colon): 4.88 µM | GI50 (HL-60(TB) leukemia): 2.37 µM | TGI (HL-60(TB) leukemia): 6.9 µM | GI50 (SNB-75 CNS): 9.41 µM | TGI (SNB-75 CNS): 22.2 µM

COC(=O)Nc1nc2ccc(C(=O)c3ccc(N(C)C4COC4)cc3)cc2[nH]1
GI50 (SF-295 CNS): 0.28 µM | TGI (SF-295 CNS): > 100 µM | GI50 (A549 NSCLC): 0.655 µM | TGI (A549 NSCLC): > 100 µM | GI50 (UACC-62 melanoma): 0.38 µM | TGI (UACC-62 melanoma): > 100 µM | GI50 (HT29 colon): 0.34 µM | TGI (HT29 colon): > 100 µM | GI50 (SW-620 colon): 0.355 µM | TGI (SW-620 colon): > 100 µM | GI50 (NCI-H226 lung): 1.99 µM | TGI (NCI-H226 lung): > 100 µM | GI50 (HCT-15 colon): 0.303 µM | TGI (HCT-15 colon): > 100 µM | GI50 (HL-60(TB) leukemia): 0.266 µM | TGI (HL-60(TB) leukemia): 2.85 µM | GI50 (SNB-75 CNS): 0.227 µM | TGI (SNB-75 CNS): > 100 µM

COc1cc2c(cc1OC)C(OC)N(C)c1c-2ccc2cc3c(cc12)OCO3 (stereo unspecified)
TGI (SF-295 CNS): > 75 µM | TGI (UACC-62 melanoma): 3.08 µM | TGI (RXF 393 renal): 22.7 µM | TGI (HT29 colon): 7.07 µM | TGI (SW-620 colon): 8.35 µM | TGI (NCI-H226 lung): 4.3 µM | TGI (HCT-15 colon): > 75 µM | TGI (HL-60(TB) leukemia): > 36.9 µM | TGI (SNB-75 CNS): 5.53 µM

COC(=O)NC1(NC(=O)OC)NC(=O)c2cc(OC)c(OC)c(OC)c2N1
TGI (SF-295 CNS): > 100 µM | TGI (A549 NSCLC): > 100 µM | TGI (UACC-62 melanoma): > 100 µM | TGI (HT29 colon): > 100 µM | TGI (SW-620 colon): > 100 µM | TGI (NCI-H226 lung): > 100 µM | TGI (HCT-15 colon): > 100 µM | TGI (HL-60(TB) leukemia): 87.7 µM | TGI (SNB-75 CNS): 38.8 µM
